Where no end group is shown, it is not given here.
Experiments:
C57BL/6 mice = experiment: Serum anti-PC antibody responses of immunized mice via ELISA (PC-BSA coated); format: in vivo, mouse; details: 10% Cys4-Q11 added to PC-Q11 or PCM-Q11 nanofibers; i.p.
Experimental: Mice and Immunizations. Female C57BL/6 mice (Envigo) age 6-10 weeks were used to initiate experiments except for the Il10^−/− colitis study where female B6.129P2-Il10^tm1Cgn/J (The Jackson Laboratory) mice age 5-7 weeks were used. While female mice were used for most experiments, age-matched male C57BL/6 mice (Envigo) were used in a one cycle acute DSS colitis model to confirm efficacy across sexes. Mice were housed at Duke University. All experimental procedures were performed on protocols (A264-18-11 and A199-21-09) approved by the Duke University Institutional Animal Care and Use Committee (IACUC). For subcutaneous immunizations, anesthetized mice were injected once behind each shoulder with 50 μL of 2 mM peptide nanofiber solution or 1×PBS. For intraperitoneal immunizations, mice were injected with 100 μL of 2 mM peptide nanofiber solution or 1×PBS. Nanofiber immunizations with adjuvant contained 10 μg CpG (ODN 1826, IAX-200-002-3001, Innaxon). For injections of only CpG, 10 μg of CpG in 100 μL 1×PBS was used. Mice were typically given three immunizations, with the specific boosting schedules stated in each figure caption, usually at weeks 0, 2, and 4, as this was determined to produce robust antibody responses in a short time frame.
Detection of Anti-PC Antibody Responses via ELISA. Anti-PC antibody responses in serum collected from the submandibular vein in mice were measured using ELISA. Briefly, plates were coated with 20 μg/mL PC-BSA (Biosearch Technologies, PC-1011-10) in 1×PBS or just 1×PBS at 4° C. overnight. The next day, the plates were washed using 1×PBST (1×PBS with 0.05% Tween 20) and then blocked three times with Superblock blocking buffer solution (Thermo Fisher, 37515). Serum diluted from 1:10^2 to 1:10^5 in 1% BSA in 1×PBST was the added to the plate and allowed to incubate for 2 h at room temperature. Anti-PC IgG was detected using HRP-conjugated Fcγ fragment-specific goat anti-mouse IgG (Jackson Immuno Research, 15-035-071). IgG subclasses and IgM anti-PC antibodies were detected using Southern Biotech HRP-conjugated goat anti-mouse antibodies (IgG1, IgG2b, IgG2c, IgG3, & IgM: 5300-05B). Area under the curve (AUC) measurements were calculated using background-subtracted absorbance values at dilutions from 1:10^2 to 1:10^5. Antibody titers were defined using an absorbance cutoff above background of 0.2 OD, where titer 2 represents an OD value greater than 0.2 at 1:10^2 dilution and so on up to titer 5 at 1:10^5 dilution.

[1] = Zeta potential of nanofibers; format: physicochemical; details: 1 mM conjugate coassembled with 1 mM Q11; 0.2 mM in 1×PBS, 25° C.
Experimental: Zeta Potential. Nanofibers were diluted to 0.2 mM in 1×PBS and zeta potential measurements were conducted at 25° C. using an Anton Paar Litesizer 500.

[2] = test system: mouse anti-PC IgM monoclonal antibody (Clone: BH8); experiment: ELISA for measuring nanofiber epitope reactivity; format: binding; details: nanofibers coated at 0.2 mM; PC-BSA positive control
Experimental: ELISA for Measuring Nanofiber Epitope Reactivity. The reactivity of PC conjugation methods was determined via binding of a mouse anti-PC IgM monoclonal antibody (Clone: BH8) (Sigma, MABF2084) to nanofibers. Nanofibers were diluted to 0.2 mM and coated onto 96-well plates at 4° C. overnight. PC-BSA (Biosearch Technologies, PC-1011-10) was coated at 20 μg/mL in 1×PBS overnight as a positive control, and PBS was used as a negative control. The next day, the plates were washed using 1×PBS with 0.05% Tween 20 (1×PBST) and then blocked with Superblock blocking buffer solution (Thermo Fisher, 37515) three times. This was followed by the addition anti-PC IgM which was serially diluted in 1% BSA in 1×PBST by 5-fold steps beginning from 1:100 (5 μg/mL) and allowed to incubate for 2 h at room temperature. Anti-PC IgM bound to nanofibers was then detected with HRP-conjugated goat anti-mouse IgM (Southern Biotech, 1021-05) and the absorbance values at 450 nm were measured.

macrophages (F4/80+) = experiment: Nanofiber uptake in i.p. lavage cells, flow cytometry: macrophages; format: in vivo, mouse; details: 4 hours after i.p. injection of TAMRA-labeled nanofibers
Experimental: (§1) Nanofiber Uptake and Evaluation. The cell types present and their propensity to uptake nanofibers in the i.p. space was tested by injecting mice i.p. with 100 μL of 2 mM TAMRA-labeled fluorescent nanofibers. 4 hours later, mice were euthanized and i.p. lavage was conducted via the injection of 2 mL of cold 1×PBS into the peritoneal cavity and massaging the abdomen for 30 seconds. The solution was then carefully extracted from the i.p. space and the cells were isolated followed by rinsing with ice cold flow buffer (2% heat-inactivated FBS in 1×PBS). The cells present were treated with mouse BD Fc Block (Clone: 2.4G2) (BD Biosciences, 553142) in flow buffer on ice for 30 min and then washed and stained with antibodies against the following markers: CD5-APC (Clone: 53-7.3) (BioLegend, 100626), F4/80-PerCP/Cy5.5 (Clone: BM8) (BioLegend, 123128), CD19-APC/Cy7 (Clone: 6D5) (BioLegend, 115530), CD11c-PE/Cy7 (Clone: N418) (BioLegend, 117318), and CD86-BV605 (Clone: GL1) (BD Biosciences, 2272591) in flow buffer for 30 min on ice. TAMRA-fluorescence as an indication of nanofiber uptake was measured on the PE channel. Cells were then washed in flow buffer and stained with DAPI. Flow cytometry was conducted on a BD FACSCanto II cytometer and the results were analyzed using FlowJo software.

B1a cells (CD19+CD5+) = experiment: Nanofiber uptake in i.p. lavage cells, flow cytometry: B1a cells; format: in vivo, mouse; details: 4 hours after i.p. injection
Experimental: as §1

Substance	effect of extra cysteines on anti-PC antibody responses (C57BL/6 mice)	zeta potential (surface charge) of nanofibers [1]	binding of anti-PC mAb to nanofibers [2]	macrophages staining positively for nanofibers (macrophages (F4/80+))	CD86 activation marker on TAMRA+ B1a cells vs non-B1a cells (B1a cells (CD19+CD5+))
CCCCSGSG-QQKFQFQFEQQ-NH2 (CCCCSGSGQQKFQFQFEQQ-NH2; cysteine pairing not given here) [Cys4-Q11]	did not significantly enhance or reduce the anti-PC antibody responses	–	–	–	–
C5H14NO4P-SGSG-QQKFQFQFEQQ-NH2 (C5H14NO4P-SGSGQQKFQFQFEQQ-NH2) [pa-PC-Q11, phosphoramidate-linked PC-Q11]	–	positively charged	not	–	–
AC-QQKFQFQFEQQ-NH2 (Ac-QQKFQFQFEQQ-NH2) [Q11]	–	–	not	almost all macrophages staining positively for nanofibers	not seen
